ChEMBL document CHEMBL1201862, “PubChem BioAssay data set” (2004)
Active and inactive are the calls of the source. Rule as the data show it, for most assays here: actives have a measured AC50 and inactives only a lower limit.

Key:
CAAX prenyl protease 2 = molecular target: T1, CAAX prenyl protease 2 (Homo sapiens, UniProt Q9Y256); assay: inhibition of Ras-converting CAAX protease Rce1 – biochemical, yeast membranes, quenched-peptide fluorescence, cherry-pick, dose response (AID 588849)
T1 sequence (Q9Y256 whole entry): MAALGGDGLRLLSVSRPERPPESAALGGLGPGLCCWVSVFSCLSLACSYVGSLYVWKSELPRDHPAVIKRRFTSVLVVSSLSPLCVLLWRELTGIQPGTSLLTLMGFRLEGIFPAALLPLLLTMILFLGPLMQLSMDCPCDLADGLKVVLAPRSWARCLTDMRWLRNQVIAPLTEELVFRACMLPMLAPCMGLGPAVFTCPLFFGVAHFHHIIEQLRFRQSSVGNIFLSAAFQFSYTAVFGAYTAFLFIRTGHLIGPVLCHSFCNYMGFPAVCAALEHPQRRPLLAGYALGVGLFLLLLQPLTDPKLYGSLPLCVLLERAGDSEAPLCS

HeLa = assay: ATP-based viability loss in HeLa cells – cell-based, CellTiter-Glo luminescence, cherry-pick samples, cytotoxicity control for MITF activator project, dose response (AID 540259); format: functional; conditions: Homo sapiens
[1] = molecular target: Voltage-gated inwardly rectifying potassium channel KCNH2 (Homo sapiens, UniProt Q12809); conditions: Potency;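 also: confirmatory quantitative high-throughput screen measuring inhibition of hERG channel activity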
Voltage-gated inwardly rectifying potassium channel KCNH2, sequence (Q12809 whole entry): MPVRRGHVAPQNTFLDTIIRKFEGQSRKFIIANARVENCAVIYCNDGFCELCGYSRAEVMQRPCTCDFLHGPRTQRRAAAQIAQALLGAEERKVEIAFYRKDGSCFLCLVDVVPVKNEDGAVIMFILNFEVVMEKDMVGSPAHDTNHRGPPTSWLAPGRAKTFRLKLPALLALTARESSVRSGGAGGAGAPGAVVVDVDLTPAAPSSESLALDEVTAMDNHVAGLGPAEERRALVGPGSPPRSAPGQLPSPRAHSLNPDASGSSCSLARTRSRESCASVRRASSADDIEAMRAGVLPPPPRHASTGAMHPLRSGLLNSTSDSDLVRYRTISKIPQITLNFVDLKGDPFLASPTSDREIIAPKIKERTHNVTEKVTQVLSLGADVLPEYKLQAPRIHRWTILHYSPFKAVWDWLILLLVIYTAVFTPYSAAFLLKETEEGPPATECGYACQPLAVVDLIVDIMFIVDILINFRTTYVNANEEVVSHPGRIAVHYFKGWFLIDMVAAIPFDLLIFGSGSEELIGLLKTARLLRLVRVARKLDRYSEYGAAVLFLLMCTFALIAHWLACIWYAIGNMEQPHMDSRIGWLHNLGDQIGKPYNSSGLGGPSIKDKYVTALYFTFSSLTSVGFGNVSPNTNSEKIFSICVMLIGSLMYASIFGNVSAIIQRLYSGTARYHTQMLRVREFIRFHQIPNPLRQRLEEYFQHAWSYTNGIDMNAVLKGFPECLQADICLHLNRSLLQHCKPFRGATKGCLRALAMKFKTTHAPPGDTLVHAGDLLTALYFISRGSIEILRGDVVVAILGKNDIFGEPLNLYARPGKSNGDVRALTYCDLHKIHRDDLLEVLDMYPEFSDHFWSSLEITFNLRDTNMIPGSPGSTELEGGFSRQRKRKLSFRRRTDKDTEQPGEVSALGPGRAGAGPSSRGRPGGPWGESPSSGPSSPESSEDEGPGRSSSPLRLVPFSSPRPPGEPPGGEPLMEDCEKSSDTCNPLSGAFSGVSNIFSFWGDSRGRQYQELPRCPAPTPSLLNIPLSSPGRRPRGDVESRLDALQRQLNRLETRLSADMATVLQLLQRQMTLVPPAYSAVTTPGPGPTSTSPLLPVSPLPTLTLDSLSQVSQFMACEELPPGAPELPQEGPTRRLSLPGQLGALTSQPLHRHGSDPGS

With `Cc1ccc(S(=O)(=O)Nc2ccccc2C(=O)NCC2CCCO2)cc1` (stereo not given) the AC50 (CAAX prenyl protease 2) was 44.8 µM (active).

With `CSCc1ccc(C(=O)Nc2cc(C)cc(C)c2)cc1` the AC50 (HeLa) was 161 µM (active).

With `Cc1ccccc1S(=O)(=O)NC(=Nc1nc2ccccc2s1)c1ccccc1` the AC50 (HeLa) was 263 µM (active).

With `COc1ccc2c3c1O[C@H]1C(=O)CC[C@@]4(O)C(C2)N(CC2CC2)CCC314` (stereo not given in full) the AC50 [1] was 17.8 µM (inconclusive).

For `CN1[C@@H]2CC[C@H]1C[C@@H](OC(c1ccccc1)c1ccccc1N)C2` (stereo not given in full) [AMINOBENZTROPINE], the AC50 [1] was 11.2 µM (inconclusive).
